From patent US7138361B2, “Herbicidal heterocycles” (E. I. du Pont de Nemours and Company, priority 2000, dated 2006)

Columns and labels:
Assay type in all cases: in vivo
[1] = system: barnyardgrass (Echinochloa crus-galli); assay: Test A preemergence, soil drench; conditions: approx. eleven days
Method: (§1) Seeds of barnyardgrass (Echinochloa crus-galli), crabgrass (Digitaria spp.), giant foxtail (Setaria viridis), morning glory (Ipomoea spp.), redroot pigweed (Amaranthus retroflexus) and velvetleaf (Abutilon theophrasti) were planted into a sandy loam soil and treated preemergence by soil drench with test chemicals formulated in a non-phytotoxic solvent mixture which included a surfactant. At the same time, these crop and weed species were also treated postemergence sprayed to runoff with test chemicals formulated in the same manner. Plants ranged in height from two to eighteen cm and were in the one- to two-leaf stage for the postemergence treatment. Treated plants and untreated controls were maintained in a greenhouse for approximately eleven days, after which time all treated plants were compared to untreated controls and visually evaluated for injury. Plant response ratings, summarized in Table A, are based on a 0 to 10 scale where 0 is no effect and 10 is complete control. A dash (-) response means no test results.

[2] = system: crabgrass (Digitaria spp.); assay: Test A preemergence, soil drench; conditions: approx. eleven days
Method: as §1

[3] = system: giant foxtail (Setaria viridis); assay: Test A preemergence, soil drench; conditions: approx. eleven days
Method: as §1

[4] = system: morning glory (Ipomoea spp.); assay: Test A preemergence, soil drench; conditions: Morningglory, approx. eleven days
Method: as §1

[5] = system: redroot pigweed (Amaranthus retroflexus); assay: Test A preemergence, soil drench; conditions: approx. eleven days
Method: as §1

[6] = system: velvetleaf (Abutilon theophrasti); assay: Test A preemergence, soil drench; conditions: approx. eleven days
Method: as §1

[7] = system: blackgrass (Alopecurus myosuroides); assay: Test B postemergence; conditions: 13 to 15 days
Outline: (§2)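 Visual injury scores, 0 = no effect to 100 = complete control, assigned against controls after 13 to 15 days in the greenhouse. Compounds formulated in non-phytotoxic solvent plus surfactant and applied to soil after planting (pre) or onto foliage of 1- to 4-leaf plants (post).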

[8] = system: lambsquarters (Chenopodium album); assay: Test B postemergence; conditions: 13 to 15 days
Outline: as §2

[9] = system: barnyardgrass (Echinochloa crus-galli); assay: Test B flooded paddy test; conditions: Rate 1000 g/ha, scale of 0 to 100 where 0 is no effect and 100 is complete control, visually evaluated after 13 to 15 days
Outline: (§3)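 Plants were grown to the 2-leaf stage in flooded paddy conditions before treatment with the formulated test chemicals. After 13 to 15 days in a greenhouse, each species was visually compared with untreated controls and rated from 0 (no effect) to 100 (complete control).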

[10] = system: duck salad (Heteranthera limosa); assay: Test B flooded paddy test; conditions: Rate 1000 g/ha, scale of 0 to 100 where 0 is no effect and 100 is complete control, visually evaluated after 13 to 15 days
Outline: as §3

rice (Oryza saliva) [11] = assay: Test B flooded paddy test; conditions: Rate 1000 g/ha, scale of 0 to 100 where 0 is no effect and 100 is complete control, visually evaluated after 13 to 15 days
Outline: as §3

[12] = system: smallflower flatsedge (Cyperus difformis); assay: Test B flooded paddy test; conditions: Rate 1000 g/ha, scale of 0 to 100 where 0 is no effect and 100 is complete control, visually evaluated after 13 to 15 days
Outline: as §3

[13] = system: barnyardgrass (Echinochloa crus-galli); assay: Test C flooded paddy test; conditions: for Barnyardgrass plant response rating: scale 0 to 100, 0 no effect, 100 complete control
Outline: (§4)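 Flooded paddy, 2-leaf stage at treatment. Readout: visual % control vs untreated, 0–100, at 12–14 d in greenhouse.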

[14] = system: duck salad (Heteranthera limosa); assay: Test C flooded paddy test; conditions: for Ducksalad plant response rating: scale 0 to 100, 0 no effect, 100 complete control
Outline: as §4

rice (Oryza saliva) [15] = assay: Test C flooded paddy test; conditions: for Rice plant response rating: scale 0 to 100, 0 no effect, 100 complete control
Outline: as §4

[16] = system: smallflower flatsedge (Cyperus difformis); assay: Test C flooded paddy test; conditions: for Flatsedge plant response rating: Flooded Paddy, scale 0 to 100, 0 no effect, 100 complete control; for Plant response rating, Flatsedge: flooded paddy test, scale 0 to 100 (0 no effect, 100 complete control)
Outline: as §4

[17] = Rate 125 g/ha, scale 0 (no effect) to 100 (complete control)
[18] = Rate 500 g/ha, scale 0 to 100, 0 is no effect, 100 is complete control
[19] = Flooded Paddy, Rate 500 g/ha, scale 0 to 100
[20] = flooded paddy test, Rate 62 g/ha, scale 0 to 100 (0 no effect, 100 complete control)
[21] = flooded paddy test, Rate 125 g/ha, scale 0 to 100 (0 no effect, 100 complete control)
[22] = Flooded Paddy, Rate 1000 g/ha, scale 0 to 100

Compound	Plant response rating, Blackgrass [7, 17]	Plant response rating, Blackgrass [7, 18]	Plant response rating, Lambsquarters [8, 17]	Plant response rating, Lambsquarters [8, 18]	Plant response rating, Barnyardgrass [9]	Plant response rating, Ducksalad [10]	Plant response rating, Rice (rice (Oryza saliva) [11])	Plant response rating, Flatsedge [12]	Barnyardgrass plant response rating ([13]; Flooded Paddy, Rate 250 g/ha)	Plant response rating, Barnyardgrass [13, 20]	Plant response rating, Barnyardgrass [13, 21]	Ducksalad plant response rating ([14]; Flooded Paddy, Rate 250 g/ha)	Plant response rating, Ducksalad [14, 20]	Plant response rating, Ducksalad [14, 21]	Rice plant response rating (rice (Oryza saliva) [15]; Flooded Paddy, Rate 250 g/ha)	Plant response rating, Rice (rice (Oryza saliva) [15]; [20])	Plant response rating, Rice (rice (Oryza saliva) [15]; [21])	Flatsedge plant response rating ([16]; Rate 250 g/ha)	Flatsedge plant response rating ([16]; Rate 500 g/ha)	Plant response rating, Flatsedge ([16]; Rate 62 g/ha)	further results
CC1CCc2cn(C3CCN(c4cccc(C(F)(F)F)c4)C3=O)nc21 (stereo not shown) [Compound 11]	0	0	0	0	60	90	40	100	30	0	20	20	0	20	20	0	0	90	100	90	Plant response rating (visual injury vs untreated controls) ([1]; Rate 500 g/ha): 100; Plant response rating (visual injury vs untreated controls) ([1]; Rate 2000 g/ha): 100; Plant response rating (visual injury vs untreated controls) ([2]; Rate 500 g/ha): 100; Plant response rating (visual injury vs untreated controls) ([2]; Rate 2000 g/ha): 100; Plant response rating (visual injury vs untreated controls) ([3]; Rate 500 g/ha): 100; Plant response rating (visual injury vs untreated controls) ([3]; Rate 2000 g/ha): 100; Plant response rating (visual injury vs untreated controls) ([4]; Rate 500 g/ha): 0; Plant response rating (visual injury vs untreated controls) ([4]; Rate 2000 g/ha): 0; Plant response rating (visual injury vs untreated controls) ([5]; Rate 500 g/ha): 100; Plant response rating (visual injury vs untreated controls) ([5]; Rate 2000 g/ha): 100; Plant response rating (visual injury vs untreated controls) ([6]; Rate 500 g/ha): 0; Plant response rating (visual injury vs untreated controls) ([6]; Rate 2000 g/ha): 20; Plant response rating, Barnyardgrass [13, 19]: 80; Plant response rating, Ducksalad [14, 19]: 30; Plant response rating, Rice (rice (Oryza saliva) [15]; [19]): 30; Plant response rating, Flatsedge ([16]; Rate 125 g/ha): 90
O=C1C(n2ccc(C3CC3)n2)SCN1c1cccc(C(F)(F)F)c1 (stereo not shown) [Compound 26]	0	0	80	80	0	0	0	0	80	0	50	100	0	80	80	0	40	95	95	90	Plant response rating (visual injury vs untreated controls) ([1]; Rate 500 g/ha): 100; Plant response rating (visual injury vs untreated controls) ([1]; Rate 2000 g/ha): 100; Plant response rating (visual injury vs untreated controls) ([2]; Rate 500 g/ha): 100; Plant response rating (visual injury vs untreated controls) ([2]; Rate 2000 g/ha): 100; Plant response rating (visual injury vs untreated controls) ([3]; Rate 500 g/ha): 100; Plant response rating (visual injury vs untreated controls) ([3]; Rate 2000 g/ha): 100; Plant response rating (visual injury vs untreated controls) ([4]; Rate 500 g/ha): 0; Plant response rating (visual injury vs untreated controls) ([4]; Rate 2000 g/ha): 30; Plant response rating (visual injury vs untreated controls) ([5]; Rate 500 g/ha): 100; Plant response rating (visual injury vs untreated controls) ([5]; Rate 2000 g/ha): 100; Plant response rating (visual injury vs untreated controls) ([6]; Rate 500 g/ha): 50; Plant response rating (visual injury vs untreated controls) ([6]; Rate 2000 g/ha): 40; Barnyardgrass plant response rating ([13]; Flooded Paddy, Rate 500 g/ha): 100; Ducksalad plant response rating ([14]; Flooded Paddy, Rate 500 g/ha): 70; Rice plant response rating (rice (Oryza saliva) [15]; Flooded Paddy, Rate 500 g/ha): 80; Plant response rating, Flatsedge ([16]; Rate 125 g/ha): 90
CC(C)(C)c1ccn(C2CCN(c3cccc(C(F)(F)F)c3)C2=O)n1 (stereo not shown) [Example 3, 3-[3-(1,1-dimethylethyl)-1H-pyrazol-1-yl]-1-[3-(trifluoromethyl)phenyl]-2-pyrrolidinone]	0	0	80	100	100	100	90	100	100	20	80	80	20	80	50	0	0	100	100	90	Plant response rating (visual injury vs untreated controls) ([1]; Rate 250 g/ha): 100; Plant response rating (visual injury vs untreated controls) ([1]; Rate 1000 g/ha): 100; Plant response rating (visual injury vs untreated controls) ([2]; Rate 250 g/ha): 100; Plant response rating (visual injury vs untreated controls) ([2]; Rate 1000 g/ha): 100; Plant response rating (visual injury vs untreated controls) ([3]; Rate 250 g/ha): 100; Plant response rating (visual injury vs untreated controls) ([3]; Rate 1000 g/ha): 100; Plant response rating (visual injury vs untreated controls) ([4]; Rate 250 g/ha): 0; Plant response rating (visual injury vs untreated controls) ([4]; Rate 1000 g/ha): 0; Plant response rating (visual injury vs untreated controls) ([5]; Rate 250 g/ha): 100; Plant response rating (visual injury vs untreated controls) ([5]; Rate 1000 g/ha): 100; Plant response rating (visual injury vs untreated controls) ([6]; Rate 250 g/ha): 0; Plant response rating (visual injury vs untreated controls) ([6]; Rate 1000 g/ha): 0; Plant response rating, Barnyardgrass [13, 19]: 100; Plant response rating, Barnyardgrass [13, 22]: 100; Plant response rating, Ducksalad [14, 19]: 90; Plant response rating, Ducksalad [14, 22]: 100; Plant response rating, Rice (rice (Oryza saliva) [15]; [19]): 60; Plant response rating, Rice (rice (Oryza saliva) [15]; [22]): 90; Flatsedge plant response rating ([16]; rate of this column group stands in head line r653, not shown (group before Rate 500 g/ha)): 100; Plant response rating, Flatsedge ([16]; Rate 125 g/ha): 100
